Test results taken from patent US20180185332A1, “Leukotriene Receptor Antagonists and Their Derivatives for Use as Antibacterial Agents” (University of East London, priority 2013, published 2018).
Values after ≈ are worked out from the molar mass of the structure shown.

Legend:
Bacillus subtilis = test: Minimum inhibitory concentration (MIC) in broth; format: cell-based; details: 10^5 cfu/mL, overnight at 37° C., no visible growth
Experimental: (§1) Zafirlukast (Sigma Aldrich, UK) was resuspended in Dimethyl Sulfoxide to a concentration of 16 mM. A minimum inhibitory concentration (MIC) was conducted using various bacterial broth solutions containing between the 0 and 4 mM zafirlukast. 10^5 cfu/mL of test organism was added to each tube before incubation overnight at 37° C. The MIC was taken to be the concentration at which no visible growth was observed. In addition, zone inhibition studies were carried out using standard techniques.
(§2) The bacterial species tested included Staphylococcus aureus, methicillin resistant Staphylococcus aureus, Enterococcus faecalis, Bacillus subtilis, Streptococcus pneumoniae, and Clostridium difficile.
(§3) MIC is well known to the skilled person and is defined as the lowest concentration of agent which prevents visible growth of the bacterial strain under investigation.

Staphylococcus aureus = test: Minimum inhibitory concentration (MIC) in broth; format: cell-based; details: 10^5 cfu/mL, overnight at 37° C., no visible growth
Experimental: as §1, §2, §3

MRSA = test: Minimum inhibitory concentration (MIC) in broth; format: cell-based, methicillin resistant Staphylococcus aureus; details: Staphylococcus aureus, 10^5 cfu/mL, overnight at 37° C., no visible growth
Experimental: as §1, §2, §3

Lsr2 = Lsr2 (Mycobacterium tuberculosis, UniProt P9WIP7); details: Pinault et al 2013; cited from earlier work
Mycobacterium smegmatis = details: Pinault et al 2013; cited from earlier work
[1] = in vivo, po; cited from earlier work
[2] = test system: Mycobacterium tuberculosis; details: Pinault et al 2013; cited from earlier work
E. coli = details: Pinault et al 2013; cited from earlier work
S. aureus = test: Bactericidal activity, viable counts (percentage survival); format: cell-based; details: 3 hrs at 37° C., FIG. 2
Experimental: (§4) 10^5 cfu/mL of bacterial culture was incubated in the presence of various concentrations of zafirlukast for a period of 3 hrs at 37° C. At the end of this incubation, viable counts were taken and results recoded as percentage survival (as compared to the drug free control).

B. subtilis = test: as above; format: cell-based; details: 3 hrs at 37° C., FIG. 2
Experimental: as §4

Structure (SMILES): CO/N=C(\C(=O)N[C@@H]1C(=O)N2C(C(=O)O)=C(CSc3nc(=O)c(=O)[nH]n3C)CS[C@H]12)c1csc(N)n1 [Ceftriaxone]
- MIC (Bacillus subtilis): > 29 µM
- MIC (Staphylococcus aureus): 2 µM (≈ 1.11 µg/mL)
- MIC (MRSA): 22 µM (≈ 12.2 µg/mL)

Structure (SMILES): O=C(O)c1cn(C2CC2)c2cc(N3CCNCC3)c(F)cc2c1=O [Ciprofloxacin]
- MIC (Bacillus subtilis): > 12 µM
- MIC (Staphylococcus aureus): 3 µM (≈ 0.994 µg/mL)
- MIC (MRSA): 40 µM (≈ 13.3 µg/mL)

Structure (SMILES): COc1cc(C(=O)NS(=O)(=O)c2ccccc2C)ccc1Cc1cn(C)c2ccc(NC(=O)OC3CCCC3)cc12 [Zafirlukast, [3-[2-Methoxy-4-(toluene-2-sulfonylaminocarbonyl)benzyl]-I-methyl-IH-indol-5-yl]carbamic acid cyclopentyl ester]
- complexation of Lsr2 with DNA (Lsr2): inhibits the complexation
- bactericidal activity against M. smegmatis (Mycobacterium smegmatis): exhibits bactericidal activity
- growth of Mycobacterium smegmatis (Mycobacterium smegmatis): inhibits the growth
- plasma half-life [1]: approximately 10 hours
- growth of Mycobacterium tuberculosis [2]: inhibits the growth
- effect on the growth of E. coli (E. coli): no effect
- MIC (Bacillus subtilis): 6 µM (≈ 3.45 µg/mL)
- MIC (Staphylococcus aureus): 30 µM (≈ 17.3 µg/mL)
- MIC (MRSA): 6 µM (≈ 3.45 µg/mL)
- bactericidal activity (S. aureus): bactericidal activity
- bactericidal activity (B. subtilis): bactericidal activity
